The results in this text go back to US7468253B2, “Method for multiple chemokine receptor screening for antagonists using RAM assay” (Chemocentryx, Inc., priority 2001, dated 2008).

Test [1] concerns THP-1 cells. In words: Effect of full RAM concentration of MCP-1 on MIP-1α-induced migration. In kind it is cell-based, human. The following applies: 100 nM MCP-1, THP-1 cells, FIG. 11B. The procedure:
An effect of 100 nM of MCP-1 on MIP-1α was studied by comparing migration levels of THP-1 cells as activated by MIP-1α with THP-1 cell migration levels as activated by incubation with MIP-1α and 100 nM MCP-1.
(§1) 100 nM MCP-1 with MIP-1α at various concentrations were loaded in the bottom chamber of a ChemoTx® cell migration apparatus (5 μm pore polycarbonate polyvinylpyrrolidone-coated filters (Neuroprobe; Gaithersburg, Md.); 29 μl/well) and 20 μl of cell suspension (100K cell per well) was placed in the upper chamber. The cells were incubated at 37° C. for 90 minutes. The assay was terminated by removing the cells from the upper chamber and membrane surface using a rubber scraper. The cells that migrated to the lower chamber were quantified by CyQuant assay (Molecular Probes; Eugene, Oreg.), a fluorescent dye method that measures nucleic acid content.

Test [2] addresses T1, CCR2 (Homo sapiens, UniProt P41597).
T1 construct: THP-1 cells expressing cell surface CCR1 and CCR2; host or cells: THP-1 (human monocytic)
T1 sequence (P41597 1-360 isoform P41597-2): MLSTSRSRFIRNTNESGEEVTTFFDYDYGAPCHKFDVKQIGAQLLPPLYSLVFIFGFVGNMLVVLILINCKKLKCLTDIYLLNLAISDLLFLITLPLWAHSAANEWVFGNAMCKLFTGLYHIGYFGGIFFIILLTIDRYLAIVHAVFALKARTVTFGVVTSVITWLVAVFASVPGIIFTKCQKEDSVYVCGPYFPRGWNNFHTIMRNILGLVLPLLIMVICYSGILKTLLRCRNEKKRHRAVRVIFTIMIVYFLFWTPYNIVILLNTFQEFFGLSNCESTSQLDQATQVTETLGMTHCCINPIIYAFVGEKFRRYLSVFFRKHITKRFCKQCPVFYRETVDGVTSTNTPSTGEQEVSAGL
In words: Conventional cell migration assay, MCP-1 dose response in THP-1 cells. The following applies: 90 minutes, FIG. 10. It is filed as cell-based. The procedure: (§2) To obtain a dose response curve for THP-1 cells expressing cell surface CCR1 and CCR2, a conventional cell migration assay was used (Bacon et al., 1988; Penfold et al., 1999). Cells were harvested by centrifugation and then resuspended in cell migration buffer (Hank's balanced salt solution (HBSS)/0.1% bovine serum albumin (BSA)) at 0.1×10^6 cells per well. The CCR1 and CCR2 ligands MIP-1α and MCP-1, respectively, were prepared in the concentration series (10 nM to 10 μM) by serial dilution in cell migration buffer. At low concentrations, MIP-1α and MCP-1 activate cell migration of CCR1 and CCR2 bearing activated cells, respectively.
as §1, with “MIP-1α and” for “100 nM”, “MCP-1” for “MCP-1 with MIP-1α at various concentrations”, “content. […]” for “content.”

Test [3] addresses T2, CCR1 (Homo sapiens, UniProt P32246).
T2 construct: THP-1 cells expressing cell surface CCR1 and CCR2; host or cells: THP-1 (human monocytic)
T2 sequence (P32246 1-355): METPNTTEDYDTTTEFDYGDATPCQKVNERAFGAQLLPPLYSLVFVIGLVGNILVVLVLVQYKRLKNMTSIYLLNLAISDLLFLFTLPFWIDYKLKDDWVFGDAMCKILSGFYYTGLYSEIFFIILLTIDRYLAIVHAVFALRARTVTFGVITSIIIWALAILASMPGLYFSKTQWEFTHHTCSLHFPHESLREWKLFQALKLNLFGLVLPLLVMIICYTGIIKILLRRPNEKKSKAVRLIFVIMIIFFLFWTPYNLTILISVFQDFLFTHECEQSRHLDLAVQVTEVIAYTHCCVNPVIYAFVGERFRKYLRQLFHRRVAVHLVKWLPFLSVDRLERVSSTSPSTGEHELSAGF
In words: Conventional cell migration assay, MIP-1α dose response in THP-1 cells. It is filed as cell-based. The following applies: 90 minutes, FIG. 10. How it is done: as §2
as §1, with “MIP-1α and” for “100 nM”, “MCP-1” for “MCP-1 with MIP-1α at various concentrations”, “content. […]” for “content.”

In test [4] the test system is THP-1 cells. In words: Effect of full RAM concentration of MIP-1α on MCP-1-induced migration. It is filed as cell-based, human. The settings on record: 100 nM MIP-1α, FIG. 11A. The procedure: An effect of 100 nM of MIP-1α on MCP-1 was studied by comparing migration levels of THP-1 cells as activated by MCP-1 with THP-1 cell migration levels as activated by incubation with MCP-1 and 100 nM MIP-1α.
as §1, with “nM MIP-1α with” for “nM”, “MCP-1” for “MCP-1 with MIP-1α”

The target in test [5] is T3, CXCR4 (Homo sapiens, UniProt P61073).
T3 construct: endogenous in cells
In words: Conventional cell migration assay, SDF-1α dose response (determining inhibitory concentration). It is filed as cell-based. The following applies: CXCR4-bearing activated lymphocytes, 150 minutes. The procedure: To obtain a dose response curve for activated lymphocytes expressing cell surface CXCR4, a conventional cell migration assay was used (Bacon et al., 1988; Penfold et al., 1999). The activated lymphocytes were prepared by culturing lymphocytes in the presence of interleukin-2 (IL-2) and phytohemeagglutinin (PHA). To isolate peripheral blood lymphocytes (i.e., a thin layer of white blood cells called the buffy coat), blood samples from the Stanford blood center were centrifuged for 10 minutes at 1200 rpm leaving a concentrated fraction containing predominantly white blood cellular fraction. Next, peripheral blood mononuclear cells (PBMC) were prepared by the standard Ficoll-Pague (Amersham Biosciences) gradient centrifugation method. Following the centrifugation, PBMC were removed and resuspended in MACS (Dulbecco's Phosphate Buffered Saline, DPBS; 1% Bovine Serum Albumin, BSA) buffer. After removal of the PMBCs, the monocytes were separated by a CD14 positive selection column mounted on an AutoMac (Multenyi Biotech). […]
The CXCR4 ligand stromal-derived factor (SDF-1α) was prepared in a concentration series (0.1 nM to […]) by serial dilution in cell migration buffer. […] The cells that migrated to the lower chamber were quantified by the CyQuant assay (Molecular Probes; Eugene, Oreg.), a fluorescent dye method that measures nucleic acid content. […]

T3 sequence (P61073 whole entry): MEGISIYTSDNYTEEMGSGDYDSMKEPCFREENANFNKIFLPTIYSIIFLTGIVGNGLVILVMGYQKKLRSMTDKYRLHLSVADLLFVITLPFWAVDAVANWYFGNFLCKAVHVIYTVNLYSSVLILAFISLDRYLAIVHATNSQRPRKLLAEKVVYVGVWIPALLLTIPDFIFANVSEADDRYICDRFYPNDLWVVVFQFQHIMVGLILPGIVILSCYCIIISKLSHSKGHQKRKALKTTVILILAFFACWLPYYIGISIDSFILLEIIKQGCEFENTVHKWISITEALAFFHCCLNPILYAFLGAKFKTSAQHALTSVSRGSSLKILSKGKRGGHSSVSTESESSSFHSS

Regarding “MCP-1: CCR2 ligand, chemokine purchased from PeproTech”, the “effect on MIP-1α-induced cell migration” value in test [1] is “no significant effect”. Besides, the “concentration determined to be completely inhibitory for cell migration” value in test [2] was 150 nM.

For the substance “MIP-1α: CCR1 ligand, chemokine purchased from PeproTech”, in test [3], the “concentration determined to be completely inhibitory for cell migration” value was found to be 150 nM. For the same substance, the “effect on MCP-1-induced cell migration” value in test [4] was “no significant effect”. Regarding SDF-1α, the “concentration determined to be completely inhibitory for cell migration” value in test [5] worked out at 1 µM.
